Test results published in publication PMC8413292, “Small-molecule polymerase inhibitor protects non-human primates from measles and reduces shedding” (Nature Communications, 2021).
Values joined by “and” are separate entries in the source; they are usually repeats but may differ in a detail not shown here. Equal entries are not always repeated.

System: MV/FrankfurtMain.DEU/17.11 (genotype D8)
Experiment: White blood cell counts from whole blood
Type: in vivo, squirrel monkeys (Saimiri sciureus)
Conditions: for WBC Mean Diff, untreated vs. prophylactic / WBC Mean Diff, untreated vs. therapeutic (d7) / WBC Mean Diff, untreated vs. therapeutic(d3): Dunnett's multiple comparisons test; for Cells [10^3/mm^3], white blood cells / Cells/ml, white blood cells / Counted Cells (Total), white blood cells: individual animals
Description: White blood cell counts, viral load quantification in PBMCs, and quantification of neutralizing antibody titers were performed as follows: for white blood cell counts, blood was diluted 1:100 in 3% acetic acid and cells were counted using a Neubauer chamber. For viral load quantification in PBMCs, blood was centrifuged at 3000 rpm for 15 min and serum was frozen at −20 °C until further use. Red blood cell lysis was performed and the remaining PBMCs were counted using a Neubauer chamber. Viral titers in PBMCs were quantified in quadruplicates using limited dilution method and calculated as TCID50/10^6 PBMCs. Neutralizing antibody titers were quantified by incubating MeV with 2-fold serial dilutions of the respective serum for 20 min at room temperature in quadruplicates. Vero/hSLAM cells were added and incubated for 3 days at 37 °C. Neutralizing antibody titers are expressed as the reciprocal of the highest serum dilution showing no signs of infection. For virus titration from throat swabs, swabs were placed in 150 μl DMEM with 3% penicillin/streptomycin and the titer was quantified by limited dilution method.

In the case of `Cn1nc(C(F)(F)F)cc1C(=O)Nc1ccc(S(=O)(=O)N2CCCC[C@H]2CCN2CCOCC2)cc1` [ERDRP-0519], the “WBC Mean Diff, untreated vs. prophylactic” value (Row 1 (0 dpi)) is reported as 0.14 10^3cells/mm^3, the “WBC Mean Diff, untreated vs. therapeutic (d7)” value (Row 1 (0 dpi)) is reported as 2 10^3cells/mm^3 and the “WBC Mean Diff, untreated vs. therapeutic(d3)” value (Row 1 (0 dpi)) is reported as 0.75 10^3cells/mm^3. For the same compound, the “WBC Mean Diff, untreated vs. prophylactic” value (Row 2 (3 dpi)) was 0.875 10^3cells/mm^3, the “WBC Mean Diff, untreated vs. therapeutic (d7)” value (Row 2 (3 dpi)) was -2.625 10^3cells/mm^3 and the “WBC Mean Diff, untreated vs. therapeutic(d3)” value (Row 2 (3 dpi)) was -1.042 10^3cells/mm^3. The “WBC Mean Diff, untreated vs. prophylactic” value (Row 3 (7 dpi)) was -2.333 10^3cells/mm^3, the “WBC Mean Diff, untreated vs. therapeutic (d7)” value (Row 3 (7 dpi)) was -0.3333 10^3cells/mm^3 and the “WBC Mean Diff, untreated vs. therapeutic(d3)” value (Row 3 (7 dpi)) was -1.375 10^3cells/mm^3. For the same compound, the “WBC Mean Diff, untreated vs. prophylactic” value (Row 4 (10 dpi)) was -1.958 10^3cells/mm^3, the “WBC Mean Diff, untreated vs. therapeutic (d7)” value (Row 4 (10 dpi)) was -0.5417 10^3cells/mm^3 and the “WBC Mean Diff, untreated vs. therapeutic(d3)” value (Row 4 (10 dpi)) was -1.167 10^3cells/mm^3. For the same compound, the “WBC Mean Diff, untreated vs. prophylactic” value (Row 5 (14 dpi)) was -1.375 10^3cells/mm^3, the “WBC Mean Diff, untreated vs. therapeutic (d7)” value (Row 5 (14 dpi)) was -0.25 10^3cells/mm^3 and the “WBC Mean Diff, untreated vs. therapeutic(d3)” value (Row 5 (14 dpi)) was -4.767 10^3cells/mm^3. For the same compound, the “WBC Mean Diff, untreated vs. prophylactic” value (Row 6 (17 dpi)) was -1.667 10^3cells/mm^3, the “WBC Mean Diff, untreated vs. therapeutic (d7)” value (Row 6 (17 dpi)) was -1.333 10^3cells/mm^3 and the “WBC Mean Diff, untreated vs. therapeutic(d3)” value (Row 6 (17 dpi)) was -1.533 10^3cells/mm^3. The “WBC Mean Diff, untreated vs. prophylactic” value (Row 7 (21 dpi)) was -1.125 10^3cells/mm^3, the “WBC Mean Diff, untreated vs. therapeutic (d7)” value (Row 7 (21 dpi)) was -1.875 10^3cells/mm^3 and the “WBC Mean Diff, untreated vs. therapeutic(d3)” value (Row 7 (21 dpi)) was -2.402 10^3cells/mm^3. For the same compound, the “leukopenia (total white blood cell counts)” value (day 3 treatment group) was “no leukopenia was observed”, the “total white blood cell counts” value (day 7 treatment group) was “a trend for lower total white blood cell counts, but this was not significant” and the “leukopenia (total white blood cell counts)” value (prophylactic group) was “no leukopenia was observed”. For the same compound, the “Cells [10^3/mm^3], white blood cells” value (prophylactic group, 0 dpi) was 7.5 10^3/mm^3 and 4.5 10^3/mm^3 and 5.5 10^3/mm^3 and 2.25 10^3/mm^3 and 10.75 10^3/mm^3, the “Cells/ml, white blood cells” value (prophylactic group, 0 dpi) was 4.50E+06 Cells/ml and 5.50E+06 Cells/ml and 2.25E+06 Cells/ml and 1.08E+07 Cells/ml and 7.50E+06 Cells/ml and the “Counted Cells (Total), white blood cells” value (prophylactic group, 0 dpi) was 30 and 18 and 22 and 9 and 43. For the same compound, the “Cells [10^3/mm^3], white blood cells” value (prophylactic group, 3 dpi) was 4.75 10^3/mm^3 (3×) and 4.25 10^3/mm^3 and 4 10^3/mm^3 and 7.25 10^3/mm^3, the “Cells/ml, white blood cells” value (prophylactic group, 3 dpi) was 4.75E+06 Cells/ml (3×) and 4.25E+06 Cells/ml and 4.00E+06 Cells/ml and 7.25E+06 Cells/ml and the “Counted Cells (Total), white blood cells” value (prophylactic group, 3 dpi) was 19 (3×) and 17 and 16 and 29. For the same compound, the “Cells [10^3/mm^3], white blood cells” value (prophylactic group, 7 dpi) was 6 10^3/mm^3 (2×) and 7 10^3/mm^3 and 4.75 10^3/mm^3 (2×) and 6.75 10^3/mm^3, the “Cells/ml, white blood cells” value (prophylactic group, 7 dpi) was 6.00E+06 Cells/ml (2×) and 7.00E+06 Cells/ml and 4.75E+06 Cells/ml (2×) and 6.75E+06 Cells/ml and the “Counted Cells (Total), white blood cells” value (prophylactic group, 7 dpi) was 24 (2×) and 28 and 19 (2×) and 27. For the same compound, the “Cells [10^3/mm^3], white blood cells” value (prophylactic group, 10 dpi) was 4.75 10^3/mm^3 (2×) and 6.5 10^3/mm^3 and 3 10^3/mm^3 and 3.75 10^3/mm^3 and 2 10^3/mm^3, the “Cells/ml, white blood cells” value (prophylactic group, 10 dpi) was 4.75E+06 Cells/ml (2×) and 6.50E+06 Cells/ml and 3.00E+06 Cells/ml and 3.75E+06 Cells/ml and 2.00E+06 Cells/ml and the “Counted Cells (Total), white blood cells” value (prophylactic group, 10 dpi) was 19 (2×) and 26 and 12 and 15 and 8. The “Cells [10^3/mm^3], white blood cells” value (prophylactic group, 14 dpi) was 6 10^3/mm^3 and 3 10^3/mm^3 and 5 10^3/mm^3 (2×) and 3.75 10^3/mm^3 and 2.75 10^3/mm^3, the “Cells/ml, white blood cells” value (prophylactic group, 14 dpi) was 3.00E+06 Cells/ml and 5.00E+06 Cells/ml (2×) and 3.75E+06 Cells/ml and 2.75E+06 Cells/ml and 6.00E+06 Cells/ml and the “Counted Cells (Total), white blood cells” value (prophylactic group, 14 dpi) was 24 and 12 and 20 (2×) and 15 and 11. The “Cells [10^3/mm^3], white blood cells” value (prophylactic group, 17 dpi) was 4.75 10^3/mm^3 and 5.25 10^3/mm^3 and 5.5 10^3/mm^3 and 3.25 10^3/mm^3 and 6.5 10^3/mm^3 and 2.25 10^3/mm^3, the “Cells/ml, white blood cells” value (prophylactic group, 17 dpi) was 5.25E+06 Cells/ml and 5.50E+06 Cells/ml and 3.25E+06 Cells/ml and 6.50E+06 Cells/ml and 2.25E+06 Cells/ml and 4.75E+06 Cells/ml and the “Counted Cells (Total), white blood cells” value (prophylactic group, 17 dpi) was 19 and 21 and 22 and 13 and 26 and 9. The “Cells [10^3/mm^3], white blood cells” value (prophylactic group, 21 dpi) was 5.25 10^3/mm^3 and 3.5 10^3/mm^3 and 7.75 10^3/mm^3 and 2.25 10^3/mm^3 (2×) and 5 10^3/mm^3, the “Cells/ml, white blood cells” value (prophylactic group, 21 dpi) was 3.50E+06 Cells/ml and 7.75E+06 Cells/ml and 2.25E+06 Cells/ml (2×) and 5.00E+06 Cells/ml and 5.25E+06 Cells/ml and the “Counted Cells (Total), white blood cells” value (prophylactic group, 21 dpi) was 21 and 14 and 31 and 9 (2×) and 20. The “WBC group mean (Mean 2)” value (prophylactic group, Row 1 (0 dpi)) was 6.11 10^3cells/mm^3, the “WBC group mean (Mean 2)” value (prophylactic group, Row 2 (3 dpi)) was 4.958 10^3cells/mm^3 and the “WBC group mean (Mean 2)” value (prophylactic group, Row 3 (7 dpi)) was 5.875 10^3cells/mm^3. For the same compound, the “WBC group mean (Mean 2)” value (prophylactic group, Row 4 (10 dpi)) was 4.125 10^3cells/mm^3, the “WBC group mean (Mean 2)” value (prophylactic group, Row 5 (14 dpi)) was 4.25 10^3cells/mm^3 and the “WBC group mean (Mean 2)” value (prophylactic group, Row 6 (17 dpi)) was 4.583 10^3cells/mm^3. The “WBC group mean (Mean 2)” value (prophylactic group, Row 7 (21 dpi)) was 4.333 10^3cells/mm^3, the “Cells [10^3/mm^3], white blood cells” value (therapeutic (d3) group, 0 dpi) was 4.25 10^3/mm^3 and 7.75 10^3/mm^3 and 4.75 10^3/mm^3 and 5.75 10^3/mm^3 and 5 10^3/mm^3 and the “Cells/ml, white blood cells” value (therapeutic (d3) group, 0 dpi) was 7.75E+06 Cells/ml and 4.75E+06 Cells/ml and 5.75E+06 Cells/ml and 5.00E+06 Cells/ml and 4.25E+06 Cells/ml. For the same compound, the “Counted Cells (Total), white blood cells” value (therapeutic (d3) group, 0 dpi) was 17 and 31 and 19 and 23 and 20, the “Cells [10^3/mm^3], white blood cells” value (therapeutic (d3) group, 3 dpi) was 8.75 10^3/mm^3 and 8.25 10^3/mm^3 (2×) and 6.5 10^3/mm^3 and 5 10^3/mm^3 and 4.5 10^3/mm^3 and the “Cells/ml, white blood cells” value (therapeutic (d3) group, 3 dpi) was 8.25E+06 Cells/ml (2×) and 6.50E+06 Cells/ml and 5.00E+06 Cells/ml and 4.50E+06 Cells/ml and 8.75E+06 Cells/ml. For the same compound, the “Counted Cells (Total), white blood cells” value (therapeutic (d3) group, 3 dpi) was 35 and 33 (2×) and 26 and 20 and 18, the “Cells [10^3/mm^3], white blood cells” value (therapeutic (d3) group, 7 dpi) was 3.25 10^3/mm^3 and 8.25 10^3/mm^3 and 4.75 10^3/mm^3 and 3.75 10^3/mm^3 and 7.25 10^3/mm^3 and 2.25 10^3/mm^3 and the “Cells/ml, white blood cells” value (therapeutic (d3) group, 7 dpi) was 8.25E+06 Cells/ml and 4.75E+06 Cells/ml and 3.75E+06 Cells/ml and 7.25E+06 Cells/ml and 2.25E+06 Cells/ml and 3.25E+06 Cells/ml. For the same compound, the “Counted Cells (Total), white blood cells” value (therapeutic (d3) group, 7 dpi) was 13 and 33 and 19 and 15 and 29 and 9, the “Cells [10^3/mm^3], white blood cells” value (therapeutic (d3) group, 10 dpi) was 1.75 10^3/mm^3 and 2.75 10^3/mm^3 and 3 10^3/mm^3 and 3.75 10^3/mm^3 and 4.5 10^3/mm^3 and 4.25 10^3/mm^3 and the “Cells/ml, white blood cells” value (therapeutic (d3) group, 10 dpi) was 2.75E+06 Cells/ml and 3.00E+06 Cells/ml and 3.75E+06 Cells/ml and 4.50E+06 Cells/ml and 4.25E+06 Cells/ml and 1.75E+06 Cells/ml. For the same compound, the “Counted Cells (Total), white blood cells” value (therapeutic (d3) group, 10 dpi) was 7 and 11 and 12 and 15 and 18 and 17, the “Cells [10^3/mm^3], white blood cells” value (therapeutic (d3) group, 14 dpi) was 6 10^3/mm^3 and 7.5 10^3/mm^3 and 5.5 10^3/mm^3 and 10.75 10^3/mm^3 and 12.75 10^3/mm^3 and 3.25 10^3/mm^3 and the “Cells/ml, white blood cells” value (therapeutic (d3) group, 14 dpi) was 7.50E+06 Cells/ml and 5.50E+06 Cells/ml and 1.08E+07 Cells/ml and 1.28E+07 Cells/ml and 3.25E+06 Cells/ml and 6.00E+06 Cells/ml. The “Counted Cells (Total), white blood cells” value (therapeutic (d3) group, 14 dpi) was 24 and 30 and 22 and 43 and 51 and 13, the “Cells [10^3/mm^3], white blood cells” value (therapeutic (d3) group, 17 dpi) was 4.25 10^3/mm^3 and 5 10^3/mm^3 and 4.75 10^3/mm^3 and 4.5 10^3/mm^3 and 3.75 10^3/mm^3 and the “Cells/ml, white blood cells” value (therapeutic (d3) group, 17 dpi) was 5.00E+06 Cells/ml and 4.75E+06 Cells/ml and 4.50E+06 Cells/ml and 3.75E+06 Cells/ml and 4.25E+06 Cells/ml. The “Counted Cells (Total), white blood cells” value (therapeutic (d3) group, 17 dpi) was 17 and 20 and 19 and 18 and 15, the “Cells [10^3/mm^3], white blood cells” value (therapeutic (d3) group, 21 dpi) was 4.5 10^3/mm^3 and 3.5 10^3/mm^3 and 10.25 10^3/mm^3 and 7.5 10^3/mm^3 and 2.25 10^3/mm^3 and the “Cells/ml, white blood cells” value (therapeutic (d3) group, 21 dpi) was 3.50E+06 Cells/ml and 1.02E+07 Cells/ml and 7.50E+06 Cells/ml and 2.25E+06 Cells/ml and 4.50E+06 Cells/ml.
